Test results from paper PMC10326263 (Acta Pharmaceutica Sinica. B, 2023).

Key:
[1] = Cytotoxicity in mock-infected MT-4 cells, MTT method; format: cell-based; details: human, mock-infected MT-4 cells, CC50, mock-infected MT-4 cells
[2] = tested on: HIV-1 mutant strain L100I; assay: microbe, parasite or virus in culture; format: cell-based; details: Human immunodeficiency virus 1, MT4, read-out: EC50 L100I
[3] = tested on: HIV-1 mutant strain K103N; assay: microbe, parasite or virus in culture; format: cell-based; details: Human immunodeficiency virus 1, MT4, read-out: EC50 K103N
[4] = tested on: HIV-1 mutant strain Y181C; assay: microbe, parasite or virus in culture; format: cell-based; details: Human immunodeficiency virus 1, MT4, read-out: EC50 Y181C
[5] = tested on: HIV-1 mutant strain Y188L; assay: microbe, parasite or virus in culture; format: cell-based; details: Human immunodeficiency virus 1, MT4, read-out: EC50 Y188L
[6] = tested on: HIV-1 mutant strain E138K; assay: microbe, parasite or virus in culture; format: cell-based; details: Human immunodeficiency virus 1, MT4, read-out: EC50 E138K
[7] = tested on: HIV-1 mutant strain F227L + V106A; assay: microbe, parasite or virus in culture; format: cell-based; details: Human immunodeficiency virus 1, MT4, read-out: EC50 F227L + V106A
[8] = tested on: HIV-1 mutant strain RES056 (K103N + Y181C); assay: microbe, parasite or virus in culture; format: cell-based; details: Human immunodeficiency virus 1, MT4, read-out: EC50 RES056
[9] = tested on: HIV-1 WT strain (IIIB); assay: Anti-HIV activity against WT HIV-1; details: WT HIV-1 IIIB

Compound | CC50 at 5 days [1] [nM] | EC50 [2] [nM] | EC50 [3] [nM] | EC50 [4] [nM] | EC50 [5] [nM] | EC50 [6] [nM] | EC50 [7] [nM] | EC50 [8] [nM] | SI IIIB (CC50/EC50 ratio) [9]
O=C1Nc2ccc(Cl)cc2[C@@](C#CC2CC2)(C(F)(F)F)O1 [EFV, Efavirenz, reference compound] | > 6340 | 32 ± 6 | 100 ± 19 | 7 ± 2 | 270 ± 16 | 7 ± 1 | 270 ± 48 | 480 ± 190 | 
Cc1cc(C#N)cc(C)c1Oc1nc(Nc2ccc(C#N)cc2)nc(N)c1Br [ETR, Etravirine, reference compound] | > 4590 | 32 ± 28 | 15 ± 12 | 58 ± 41 | 83 ± 53 | 37 ± 30 | 88 ± 76 | 150 ± 120 | >900
Cc1ccnc2c1NC(=O)c1cccnc1N2C1CC1 [NVP, Nevirapine, reference compound] | > 15000 | 1260 ± 600 | 5330 ± 1070 | > 9520 | > 9520 | 95 ± 31 | > 9520 | > 9520 | >114
Cc1ccc(S(=O)(=O)NCCNC(=O)c2[nH]c3ccc(Cl)cc3c2S(=O)(=O)c2cc(C)cc(C)c2)cc1 [R1L2, 5-Chloro-3-((3,5-dimethylphenyl)sulfonyl)-N-(2-((4-methylphenyl)sulfonamido)ethyl)-1H-indole-2-carboxamide] | 168000 ± 17200 | 680 ± 390 | 410 ± 110 | 610 ± 130 | 6420 ± 1400 | 860 ± 360 | 1750 ± 200 | 3380 ± 890 | 3787
Cc1ccc(S(=O)(=O)NCCCNC(=O)c2[nH]c3ccc(Cl)cc3c2S(=O)(=O)c2cc(C)cc(C)c2)cc1 [R1L3, 5-Chloro-3-((3,5-dimethylphenyl)sulfonyl)-N-(3-((4-methylphenyl)sulfonamido)propyl)-1H-indole-2-carboxamide] | 168000 ± 23500 | 540 ± 420 | 730 ± 140 | 1190 ± 300 | 7140 ± 1400 | 210 ± 140 | 1260 ± 380 | 5970 ± 650 | 4586
Cc1ccc(S(=O)(=O)NCCCCNC(=O)c2[nH]c3ccc(Cl)cc3c2S(=O)(=O)c2cc(C)cc(C)c2)cc1 [R1L4, 5-Chloro-3-((3,5-dimethylphenyl)sulfonyl)-N-(4-((4-methylphenyl)sulfonamido)butyl)-1H-indole-2-carboxamide] | 103000 ± 59800 | 160 ± 85 | 310 ± 68 | 310 ± 68 | 1520 ± 270 | 130 ± 85 | 310 ± 34 | > 103000 | 3232
Cc1ccc(S(=O)(=O)NCCCCCNC(=O)c2[nH]c3ccc(Cl)cc3c2S(=O)(=O)c2cc(C)cc(C)c2)cc1 [R1L5, 5-Chloro-3-((3,5-dimethylphenyl)sulfonyl)-N-(5-((4-methylphenyl)sulfonamido)pentyl)-1H-indole-2-carboxamide] | 113000 ± 3740 | 170 ± 17 | 630 ± 17 | 230 ± 17 | 2530 ± 180 | 180 ± 17 | 380 ± 130 | > 113000 | 4159
COc1ccc(S(=O)(=O)NCCNC(=O)c2[nH]c3ccc(Cl)cc3c2S(=O)(=O)c2cc(C)cc(C)c2)cc1 [R2L2, 5-Chloro-3-((3,5-dimethylphenyl)sulfonyl)-N-(2-((4-methoxyphenyl)sulfonamido)ethyl)-1H-indole-2-carboxamide] | 106000 ± 23000 | 660 ± 230 | 900 ± 380 | 850 ± 35 | > 106000 | 1110 ± 170 | 1580 ± 450 | > 106000 | 1233
COc1ccc(S(=O)(=O)NCCCNC(=O)c2[nH]c3ccc(Cl)cc3c2S(=O)(=O)c2cc(C)cc(C)c2)cc1 [R2L3, 5-Chloro-3-((3,5-dimethylphenyl)sulfonyl)-N-(3-((4-methoxyphenyl)sulfonamido)propyl)-1H-indole-2-carboxamide] | 163000 ± 15300 | 320 | 660 ± 85 | 830 ± 68 | 5980 ± 310 | 250 | 970 ± 51 | > 163000 | 4354
COc1ccc(S(=O)(=O)NCCCCNC(=O)c2[nH]c3ccc(Cl)cc3c2S(=O)(=O)c2cc(C)cc(C)c2)cc1 [R2L4, 5-Chloro-3-((3,5-dimethylphenyl)sulfonyl)-N-(4-((4-methoxyphenyl)sulfonamido)butyl)-1H-indole-2-carboxamide] | 22500 ± 9140 | 180 | 330 ± 33 | 330 | 800 ± 83 | 250 ± 50 | 280 ± 33 | > 22500 | 615
COc1ccc(S(=O)(=O)NCCCCCNC(=O)c2[nH]c3ccc(Cl)cc3c2S(=O)(=O)c2cc(C)cc(C)c2)cc1 [R2L5, 5-Chloro-3-((3,5-dimethylphenyl)sulfonyl)-N-(5-((4-methoxyphenyl)sulfonamido)pentyl)-1H-indole-2-carboxamide] | 110000 ± 7890 | 94 ± 47 | 570 | 190 ± 16 | 1280 ± 440 | 130 ± 49 | 280 ± 65 | > 110000 | 4772
Cc1cc(C)cc(S(=O)(=O)c2c(C(=O)NCCNS(=O)(=O)c3ccc([N+](=O)[O-])cc3)[nH]c3ccc(Cl)cc23)c1 [R3L2, 5-Chloro-3-((3,5-dimethylphenyl)sulfonyl)-N-(2-((4-nitrophenyl)sulfonamido)ethyl)-1H-indole-2-carboxamide] | > 212000 | 950 ± 85 | 590 ± 100 | 1000 ± 170 | > 212000 | 1150 | 6170 ± 1140 | > 212000 | >1764
Cc1cc(C)cc(S(=O)(=O)c2c(C(=O)NCCCNS(=O)(=O)c3ccc([N+](=O)[O-])cc3)[nH]c3ccc(Cl)cc23)c1 [R3L3, 5-Chloro-3-((3,5-dimethylphenyl)sulfonyl)-N-(3-((4-nitrophenyl)sulfonamido)propyl)-1H-indole-2-carboxamide] | 23000 ± 600 | 350 ± 17 | 730 ± 120 | 1030 ± 50 | 3290 ± 66 | 310 ± 50 | 1770 ± 33 | 4920 ± 1270 | 464
Cc1cc(C)cc(S(=O)(=O)c2c(C(=O)NCCCCNS(=O)(=O)c3ccc([N+](=O)[O-])cc3)[nH]c3ccc(Cl)cc23)c1 [R3L4, 5-Chloro-3-((3,5-dimethylphenyl)sulfonyl)-N-(4-((4-nitrophenyl)sulfonamido)butyl)-1H-indole-2-carboxamide] | 104000 ± 31400 | 130 ± 18 | 500 ± 160 | 400 ± 110 | 870 ± 65 | 230 ± 32 | 360 ± 32 | 1880 ± 680 | 3809
Cc1cc(C)cc(S(=O)(=O)c2c(C(=O)NCCCCCNS(=O)(=O)c3ccc([N+](=O)[O-])cc3)[nH]c3ccc(Cl)cc23)c1 [R3L5, 5-Chloro-3-((3,5-dimethylphenyl)sulfonyl)-N-(5-((4-nitrophenyl)sulfonamido)pentyl)-1H-indole-2-carboxamide] | > 198000 | 130 ± 6.3 | 900 ± 79 | 300 | 2470 ± 160 | 250 ± 32 | 540 ± 140 | 25140 ± 47 | >7548
